This note sets out measurements from patent US20250127906A1, “SMALL-MOLECULE DEGRADERS OF CDK8 AND CDK19” (University of South Carolina, priority 2021, published 2025).

The target in series [1] is T1, CDK8 (Homo sapiens, UniProt P49336). Nature of the series: CDK8 degradation in RPMI 8226 cells (Western blot). Format: cell-based. Further details: host or cells: RPMI 8226. The following applies: RPMI 8226, concentrations used in FIG. 14A. (Immunoblotting shows a protein as a band on a membrane.)
Target sequence in this assay (P49336 whole entry): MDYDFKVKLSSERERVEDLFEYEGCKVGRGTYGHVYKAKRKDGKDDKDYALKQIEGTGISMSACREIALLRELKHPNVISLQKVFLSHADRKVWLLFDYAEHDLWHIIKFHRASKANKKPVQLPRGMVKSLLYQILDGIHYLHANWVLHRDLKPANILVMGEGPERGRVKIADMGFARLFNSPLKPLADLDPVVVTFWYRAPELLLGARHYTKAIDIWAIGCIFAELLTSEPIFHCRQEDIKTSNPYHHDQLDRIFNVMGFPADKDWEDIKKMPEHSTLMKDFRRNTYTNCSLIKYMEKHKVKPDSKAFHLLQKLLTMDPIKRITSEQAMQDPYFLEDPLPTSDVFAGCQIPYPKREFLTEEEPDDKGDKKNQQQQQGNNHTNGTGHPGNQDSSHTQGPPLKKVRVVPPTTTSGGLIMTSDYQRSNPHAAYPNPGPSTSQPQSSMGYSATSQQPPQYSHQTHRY
Target sequence in this assay (P24863 whole entry partner): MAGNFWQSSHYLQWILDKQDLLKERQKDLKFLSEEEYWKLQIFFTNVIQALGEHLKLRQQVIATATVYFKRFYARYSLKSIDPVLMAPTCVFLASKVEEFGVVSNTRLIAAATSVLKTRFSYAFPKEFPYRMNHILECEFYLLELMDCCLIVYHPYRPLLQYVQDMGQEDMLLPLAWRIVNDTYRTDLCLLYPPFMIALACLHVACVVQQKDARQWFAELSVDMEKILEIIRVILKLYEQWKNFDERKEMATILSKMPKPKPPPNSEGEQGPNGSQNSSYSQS
The next series deals with KMS-12-BM cells. The series is described as follows: Concentration dependence of KMS-12-BM growth inhibition (CCK-8 assay). It is filed as cell-based. The following applies: Homo sapiens, 96 h, over 4 days. As to the method:
Concentration dependence of KMS-12-BM growth inhibition over 4 days was determined for BI-1347 CDK8/19 kinase inhibitor and IA7886 PROTAC using CCK-8 assay (FIG. 13B).
A general note: Tetrazolium assays rely on reduction of a dye to a coloured formazan, in cell work by metabolically active cells.

Series [2] has as its target T1, CDK8. Nature of the series: CDK8 degradation in Loucy T-cell leukemia cells lacking Cyclin C. It is filed as cell-based. The arrangement: endogenous in cells; host or cells: Loucy. The following applies: Loucy cells (lacking CCNC), 24 hr treatment. The text has this:
(§1) This cell line, however, is unique in lacking Cyclin C (CCNC), the binding partner of CDK8/19. To test if the absence of CDK8-bound CCNC was responsible for the loss of IA7843 CDK8-degrading activity, we have tested the effect of IA7843 on a derivative of HEK-293cells with CRISPR-mediated knockout of CCNC.
Target sequence in this assay (P49336 whole entry): as the sequence (P49336 whole entry) above

Series [3] can be described thus: Serum drug concentrations in CD-1 mice (LCMSMS). The following applies: female CD-1 mice, i.p. 15 mg/kg, 15 min and 1 hr. It is filed as in vivo. The method, then: For preliminary evaluation of the bioavailability of the PROTACs, IA7882 and IA7886 were administered to female CD-1 mice via intraperitoneal (i.p.) injection at the dose of 15 mg/kg. Drug concentrations were measured by LCMSMS analysis of serum samples collected at 15 min and 1 hr time point.

The test system of series [4] is pS727 STAT1 and total STAT1. The series is described as follows: pS727 STAT1 and total STAT1 in CT26 tumors in Balb/c mice. Format: in vivo. As to conditions: oral gavage 20 mg/kg, 2, 8 or 24 hrs after dosing. The method, then:
CT26 cells were injected subcutaneously into syngeneic Balb/c female mice and allowed to grow to 150˜200 mm^3. Tumor-bearing mice then received PROTACs IA7882 or IA7886 by oral gavage at 20 mg/kg in 30% propylene glycol/70% PEG-400 vehicle. Tumors were collected 2, 8 or 24 hrs after dosing and used to measure protein levels of CDK8, pS727 STAT1 and total STAT1 (by western blotting) and mRNA expression of CCL12, a gene that is inhibited by different CDK8/19 inhibitors in CT26 tumors in vivo (by QPCR).

Series [5] deals with T2, CDK19 (Homo sapiens, UniProt Q9BWU1). The series is described as follows: CDK19 degradation in HEK-293 cells with CRISPR knockout of CCNC. Format: cell-based. Further details: a derivative of HEK-293cells with CRISPR-mediated knockout of CCNC; endogenous in cells; host or cells: HEK-293 with CRISPR knockout of CCNC. As to conditions: HEK-293 CCNC-knockout cells, 24 hr treatment.
Text: as §1
Target sequence in this assay (Q9BWU1 whole entry): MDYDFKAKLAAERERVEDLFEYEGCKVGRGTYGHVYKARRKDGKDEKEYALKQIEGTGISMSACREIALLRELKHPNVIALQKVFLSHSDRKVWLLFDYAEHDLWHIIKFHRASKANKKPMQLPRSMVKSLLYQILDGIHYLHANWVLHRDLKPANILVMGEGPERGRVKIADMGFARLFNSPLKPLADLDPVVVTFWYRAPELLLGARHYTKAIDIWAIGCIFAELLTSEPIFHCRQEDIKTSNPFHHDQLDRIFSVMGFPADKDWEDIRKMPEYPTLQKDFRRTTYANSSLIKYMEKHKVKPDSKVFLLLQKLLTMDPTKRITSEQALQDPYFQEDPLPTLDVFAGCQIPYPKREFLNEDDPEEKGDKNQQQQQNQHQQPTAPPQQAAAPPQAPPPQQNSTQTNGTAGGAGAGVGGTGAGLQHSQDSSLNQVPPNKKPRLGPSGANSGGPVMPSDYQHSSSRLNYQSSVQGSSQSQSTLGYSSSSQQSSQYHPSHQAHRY

Series [6] addresses T3, CDK8 (Mus musculus, UniProt Q8R3L8).
T3 sequence (Q8R3L8 1-464): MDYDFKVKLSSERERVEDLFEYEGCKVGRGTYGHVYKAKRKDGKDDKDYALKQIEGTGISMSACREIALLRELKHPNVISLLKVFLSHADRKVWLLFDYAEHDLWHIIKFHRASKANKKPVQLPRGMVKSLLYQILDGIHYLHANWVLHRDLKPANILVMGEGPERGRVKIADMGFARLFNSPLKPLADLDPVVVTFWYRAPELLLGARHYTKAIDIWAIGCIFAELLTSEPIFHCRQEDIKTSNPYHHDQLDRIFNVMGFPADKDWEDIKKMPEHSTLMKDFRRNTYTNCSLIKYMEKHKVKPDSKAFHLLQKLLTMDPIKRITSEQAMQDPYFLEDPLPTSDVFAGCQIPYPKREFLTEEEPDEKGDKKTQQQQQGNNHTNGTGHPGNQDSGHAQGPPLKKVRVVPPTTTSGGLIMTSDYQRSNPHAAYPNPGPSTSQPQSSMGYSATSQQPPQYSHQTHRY
T3 sequence (Q62447 1-283 partner): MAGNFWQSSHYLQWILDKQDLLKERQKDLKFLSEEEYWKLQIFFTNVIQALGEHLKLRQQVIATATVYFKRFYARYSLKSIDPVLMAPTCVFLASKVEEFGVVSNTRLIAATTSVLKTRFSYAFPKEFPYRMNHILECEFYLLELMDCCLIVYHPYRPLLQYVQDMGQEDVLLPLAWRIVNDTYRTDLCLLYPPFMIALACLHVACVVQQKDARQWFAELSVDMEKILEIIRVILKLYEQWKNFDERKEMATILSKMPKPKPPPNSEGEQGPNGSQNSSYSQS
Nature of the series: CDK8 degradation in murine CT26 colon carcinoma cells. The arrangement: endogenous in cells; host or cells: CT26. Format: cell-based. The text has this: Both the extent and the kinetics of CDK8 degradation were similar between two cell lines, with the degradation reaching maximum at about 8 hrs of PROTAC treatment.

Another series concerns Jurkat cells. The series is described as follows: Long-term growth of Jurkat cells under continuous treatment. It is filed as cell-based, human. The following applies: 300 nM continuous. As to the method:
The anti-proliferative effects of a PROTAC and a kinase inhibitor were compared in leukemia cell lines. In the long-term treatment experiment shown in FIG. 11A, Jurkat cells (0.1 million cells) were continuously treated with vehicle control (0.1% DMSO), 300 nM BI-1347 or 300 nM IA7886 for 53 days (each condition in biological triplicates). Every 7-8 days, live cells were counted using BioRAD TC20 Automated Cell Counter with trypan blue staining: 0.1 million live cells were passaged to a new T25 flask to propagate under the same treatment conditions. The survival fraction was calculated by dividing the accumulated number of drug-treated cells with the accumulated number of vehicle-treated cells. […] This sustained inhibition property of PROTAC was also observed in MV4-11, a leukemia cell line highly sensitive to CDK8/19 kinase inhibitors.

The target in series [7] is T2, CDK19. The series is described as follows: CDK19 degradation in other human cell lines (22Rv1, MV4-11, HAP-1, HTB-185, SAOS2, SJSA-1). It is filed as cell-based. The arrangement: endogenous in cells. As to conditions: 24-hr treatment. An excerpt: FIG. 5 illustrates the effects of the novel PROTACs HP8580, IA7843 and IA7886 on CDK8 and CDK19 degradation in other human cell lines, including 22Rv1 prostate cancer (expressing more CDK19 than CDK8), MV4-11 (AML) and HAP-1 (CML) leukemia cell lines, HTB-185 medulloblastoma, and SAOS2 and SJSA-1 osteosarcoma (the latter expressing only CDK19 but not CDK8).
Target sequence in this assay (Q9BWU1 whole entry): as the sequence (Q9BWU1 whole entry) above
Target sequence in this assay (P24863 whole entry partner): as the sequence (P24863 whole entry partner) above

Structures are written as SMILES.

What is called IC50 is the concentration at which inhibition is half-maximal. Lower therefore signals greater potency. With `O=C(CCCNc1cccc2c1C(=O)N(C1CCC(=O)NC1=O)C2=O)NCCCCCCCCCCC(=O)N1CCN(C(=O)Cn2cc(-c3ccc(-c4cncc5ccccc45)cc3)cn2)CC1` (centres unmarked) [IA7886, 4-[[2-(2,6-dioxo-3-piperidyl)-1,3-dioxo-isoindolin-4-yl]amino]-N-[11-[4-[2-[4-[4-(4-isoquinolyl)phenyl]pyrazol-1-yl]acetyl]piperazin-1-yl]-11-oxo-undecyl]butanamide], the “CDK8 degradation (in words)” value on CDK8 [1] is “efficiently degraded CDK8 in RPMI 8226 cells”; on CDK8 [2], “efficiently degraded CDK8 and CDK19”; on CDK8 [6] it was “induce CDK8 degradation in both cell lines”. Besides, the midpoint of inhibition in the series on KMS-12-BM cells, the IC50, lay at 0.018 µM. Moreover, the serum drug concentrations entry in series [3] is “readily measurable and were higher for IA7882 than for IA7886”. Also, in series [4], the “pS727 STAT1 and total STAT1 in tumors” value is on record as “decreased in most of the tumors collected 2 hrs or 8 hrs after dosing”. In addition, the “CDK19 degradation (in words)” value on CDK19 [5] is “efficiently degraded CDK8 and CDK19”; at CDK19 [7], “significantly degraded CDK8 and CDK19 in all the tested cell lines”. For the same molecule, the “time at which CDK8 degradation reaches maximum” value at CDK8 [6] (100 nM) was “about 8 hrs”. Further, the “growth inhibition, first two passages (14 days)” value in the series on Jurkat cells is given as “had a stronger growth inhibition effect than the PROTAC IA7886”. For the same molecule, in the series with Jurkat cells (up to 53 days), the “growth rates in later passages” value is on record as “growth rates of IA-7886 treated cells were decreasing”.
